Experimental data: patent publication US20100291012A1, “ADMINISTRATION OF AMOROLFINE BY IONTOPHORESIS FOR TREATING NAIL DISEASES” (GALDERMA S.A., priority 2008, published 2010)
Like-named read-outs stand apart in the source and are kept apart here.

Type: in vitro ADME
Conditions: for Nail (summary) / Receptor (summary) / Total nail (summary): 10 mM
Description: The donor solution in experiment 2 consisted of: 0.36% (10 mM) amorolfine HCl in an aqueous solution containing 50 mM NaCl and 0.4% Tween 80. The experiment was performed at pH 3.9 without further adjustment.
The donor solution in experiment 3 consisted of: 0.36% (10 mM) amorolfine HCl in an 40:60 (w:w) Tris buffer:ethanol. The Tris buffer contained 50 mM Tris and 50 mM NaCl at pH 7.4. The pH of the buffer:ethanol solution was ˜7.5. After addition of the drug the pH was ˜5.5.
The donor solution in experiments 4 and 5 consisted of: 1% (28 mM) amorolfine HCl in an 40:60 (w:w) Tris buffer:ethanol. The Tris buffer contained 50 mM Tris and 50 mM NaCl at pH 7.4. The pH of the buffer:ethanol solution was ˜7.5. After addition of the drug the pH was ˜4.7.
Receptor solution: pH 7.4 PBS containing 0.25% Tween 80 (same as Expt. 2).
Diffusion cells: 15 mm diameter Franz diffusion cells were used. The “nail assemblage” was placed in […] the donor and receptor chambers.
Nail device: A nail was glued […] two silicone rings with an internal orifice of 5 mm diameter.
The thickness of the nails was measured with a micrometer. Before hydration nail thickness in the periphery was measured in three places. The central part was not measured at this time to avoid any risk of breaking the nail. The nails were soaked overnight in 50 mM NaCl solution. Because of the increased flexibility of the nail after soaking, it was then possible to measure the thickness in the central part, upper part and lateral corner of the nail (Table 1):
Testing for leaks and iontophoretic circuit: Before starting the iontophoretic experiment, the absence of leaks was tested for each cell. The donor and receptor chambers were filled with donor (without drug) and receptor buffer, respectively, and a 0.1 mA current was passed. In the presence of leaks, the resistance of the circuit is low and the voltage needed to drive the current is very small (˜1V).
The voltages observed at the start of current passage decreased rapidly to settle at (˜30V after approximately 20 minutes.
Once the stability of the circuit with the three cells was assured, the donor compartment was filled with the drug solution and the current re-started.
The intensity of current was 0.1 mA, equivalent to 0.51 mA/cm^2 (area exposed=0.196 cm^2).
One sample was taken after 18 hours of iontophoresis for experiment 2 and 20 hours for experiments 3 and 4. The receptor was then refilled and a passive post-iontophoretic period of 4 hours elapsed before a second sample was obtained.
After recovery of the donor solution, the anode chamber was rinsed twice with ethanol to clean residual solution from the surface of the nail. Then, the nail was cut out of the silicone ring, weighed, dissolved in Soluene®, and assayed for radioactivity.
Experiment 5 is a passive control.

- flux of amorolfine, comparison of experiments: higher flux
- Nail (summary) (18 h, pH 3.9): 5.1 ± 4.3 nmol/mg
- Receptor (summary) (18 h, pH 3.9): 2.4 ± 0.5 nmol
- Total nail (summary) (18 h, pH 3.9): 38 ± 13 nmol
- Nail (summary) (20 h): 3.2 ± 0.6 nmol/mg
- Receptor (summary) (20 h): 1.7 ± 0.7 nmol
- Total nail (summary) (20 h): 28 ± 3.6 nmol
SMILES: CCC(C)(C)c1ccc(CC(C)CN2C[C@@H](C)O[C@@H](C)C2)cc1 (stereo partly drawn) [Amorolfine, cis-4-[3-[4-(1,1-dimethylpropyl)phenyl]-2-methylpropyl]-2,6-dimethylmorpholine]
- effect of iontophoresis on drug delivery into and through the nail: enhances drug delivery into and trough the nail
